# Measured values taken from patent US20250332300A1 (priority 2024, published 2025).
# Where a name gives a salt, the structure may show the parent alone. Read-outs that look alike come from different tables or passages of the source. Starred links: 1 amine or outer side, 2 acyl side, 3 side chain; linkers in the order of their positions; H or OH if unused. Positions of bridges follow the written chain, without caps; N, C: chain ends. Non-standard residues stand in square brackets, D forms with d. Residues, ends and D or L forms follow the SMILES beside them. *: point of attachment. DOTA = O=C(O)CN1CCN(CC(=O)O)CCN(CC(=O)*)CCN(CC(=O)O)CC1; PEG10 = NCCOCCOCCOCCOCCOCCOCCOCCOCCOCCOCCC(=O)O; Trp(5-OH) = N[C@@H](Cc1c[nH]c2ccc(O)cc12)C(=O)O; NMePhe(4-F) = CN[C@@H](Cc1ccc(F)cc1)C(=O)O; NMehPhe = CN[C@@H](CCc1ccccc1)C(=O)O; Aad = N[C@@H](CCCC(=O)O)C(=O)O; Gly(cPr) = N[C@H](C(=O)O)C1CC1; NMeK = CN[C@@H](CCCCN)C(=O)O; NMeDap = CN[C@@H](CN)C(=O)O; Orn = NCCC[C@H](N)C(=O)O; X6 = O=C(C[*:1])[*:2]
# Key:
# Format in all cases: binding
# human HER2 (23-652) [1] = target: T1, human HER2 (23-652) (Homo sapiens, UniProt P04626); assay: Surface plasmon resonance (SPR) for assessment of peptide affinity, human HER2; parameters: towards human HER2 (23-652) and mouse HER2 (23-653); made in house
# Method: Each protein was immobilized either onto a SA sensorchip (Cytiva, BR-1005-31) or CM5 sensorchip (Cytiva, BR-1005-30) to a density of 800-2000 RU. […] For the assay setup the same conditions (flow rate, running buffer, peptide dilution) as described above were used. In a first step the Anti Fc IgG Ab (from Human Antibody Capture Kit, Ref. 29234600, Cytiva) was diluted into acetate pH 5.0 at 25 ug/mL and immobilized at a flow rate of 10 uL/min over 360 s to reach a density around 6000 RU. […] The peptides were tested with an association time of 280 s followed by a dissociation time of 3000 s at a flow rate of 30 uL/min. The regeneration was done using 3 M magnesium chloride regeneration solution as obtained with a contact time of 30 s at a flow rate of 10 uL/min. Curve fitting was performed using the BiacoreTM 8K evaluation software.
# mouse HER2 (23-653) = mouse HER2 (23-653) (Mus musculus, UniProt P70424); assay: TR-FRET competition assay for peptide potency, mouse HER2; parameters: mouse HER2 (23-653) using a Cy5 labeled peptide as a probe; made in house; host or cells: mammalian cells
# Method: (§1) Both proteins containing a His-, Avi-tag and biotin in Nterminus, were expressed in mammalian cells and produced in house. […] Standard assay conditions consist of 20 uL total volume in white 384-well plates (Greiner), in 10 mM HEPES buffer containing 150 mM NaCl, 3 mM EDTA, 0.05% Tween20 and 1% final DMSO. […] The ratiometric FRET assay readout is calculated from the ratio of the raw data of the two distinct fluorescence signals measured in time resolved mode (fluorescence 665 nm/fluorescence 620 nm). IC50 values were calculated with the standard Novartis in-house assay data analysis software (Helios software application, Novartis Institutes for BioMedical Research, unpublished) using the methods described in Comput. Methods. Programs. Biomed. 2006, 82, 31-37 (regression algorithms for nonlinear dose-response curve fitting).
# human HER2 (23-652) [2] = target: T1, human HER2 (23-652); assay: TR-FRET competition assay for peptide potency, human HER2; parameters: towards human HER2 (23-652) and mouse HER2 (23-653); made in house; host or cells: mammalian cells
# Method: as §1
# [3] = SPR, human HER2 extracellular domain, 25° C., 1:1 binding model; read-out: huHER2-SPR-ONC KD
# [4] = TR-FRET competition with Cy5 labeled peptide probe, 0.1 nM mouse HER2, 24 h incubation, read-out: moHER2 TR-FRET IC50
# [5] = TR-FRET competition with Cy5 labeled peptide probe, 0.1 nM human HER2, 24 h incubation, read-out: huHER2 TR-FRET IC50
SMILES,Kd (human HER2 (23-652) [1]; [3]) [nM],IC50 (mouse HER2 (23-653); [4]) [nM],IC50 (human HER2 (23-652) [2]; [5]) [nM],IC50 (human HER2 (23-652) [2]; read-out: huHER2 TR-FRET IC50) [nM],also measured
"COCCOCCOCCOCCOCCOCCOCCOCCOCCOCCOCCOCCC(=O)N[C@H]1CCCC(=O)NC[C@@H](C(=O)N(C)[C@@H](Cc2ccc(F)cc2)C(=O)N[C@@H](CCCCN)C(N)=O)N(C)C(=O)[C@H](C2CC2)NC(=O)[C@H](Cc2c[nH]c3ccccc23)NC(=O)[C@H](Cc2c[nH]c3ccc(O)cc23)NC(=O)[C@H](CCCCNC(C)=O)N(C)C(=O)[C@H](CCc2ccccc2)N(C)C(=O)[C@H](CO)NC(=O)[C@H](Cc2ccc(O)cc2)NC1=O [Example A43, TFA salt]",0.2,0.2,–,< 0.1,–
CC(=O)NCCCC[C@H]1C(=O)N[C@@H](Cc2c[nH]c3ccc(O)cc23)C(=O)N[C@@H](Cc2c[nH]c3ccccc23)C(=O)N[C@@H](C2CC2)C(=O)N(C)[C@H](C(=O)N(C)[C@@H](Cc2ccc(F)cc2)C(=O)N[C@@H](CCCCNC(=O)CN2CCN(CC(=O)O)CCN(CC(=O)O)CC2)C(N)=O)CNC(=O)CCC[C@H](NC(C)=O)C(=O)N[C@@H](Cc2ccc(O)cc2)C(=O)N[C@@H](CO)C(=O)N(C)[C@@H](CCc2ccccc2)C(=O)N1C [Example B10],< 0.1,< 0.1,–,< 0.1,–
COCCOCCOCCOCCOCCOCCOCCOCCOCCOCCOCCOCCC(=O)N[C@H]1CCCC(=O)NC[C@@H](C(=O)N(C)[C@@H](Cc2ccc(F)cc2)C(=O)N[C@@H](CCCCNC(=O)CN2CCN(CC(=O)O)CCN(CC(=O)O)CC2)C(N)=O)N(C)C(=O)[C@H](C2CC2)NC(=O)[C@H](Cc2c[nH]c3ccccc23)NC(=O)[C@H](Cc2c[nH]c3ccc(O)cc23)NC(=O)[C@H](CCCCNC(C)=O)N(C)C(=O)[C@H](CCc2ccccc2)N(C)C(=O)[C@H](CO)NC(=O)[C@H](Cc2ccc(O)cc2)NC1=O [Example B11],< 0.1,0.2,–,< 0.1,–
CC(=O)NCCCC[C@H]1C(=O)N[C@@H](Cc2c[nH]c3ccc(O)cc23)C(=O)N[C@@H](Cc2c[nH]c3ccccc23)C(=O)N[C@@H](C2CC2)C(=O)N(C)[C@H](C(=O)N(C)[C@@H](Cc2ccc(F)cc2)C(=O)N[C@@H](CCCCNC(=O)CC[C@H](C(=O)O)N2CCN(CC(=O)O)CCN(CC(=O)O)CCN(CC(=O)O)CC2)C(N)=O)CNC(=O)CCC[C@H](NC(C)=O)C(=O)N[C@@H](Cc2ccc(O)cc2)C(=O)N[C@@H](CO)C(=O)N(C)[C@@H](CCc2ccccc2)C(=O)N1C [Example B12],< 0.1,< 0.1,–,< 0.1,–
CC(=O)NCCCC[C@H]1C(=O)N[C@@H](Cc2c[nH]c3ccc(O)cc23)C(=O)N[C@@H](Cc2c[nH]c3ccccc23)C(=O)N[C@@H](C2CC2)C(=O)N(C)[C@H](C(=O)N(C)[C@@H](Cc2ccc(F)cc2)C(=O)N[C@@H](CCCCNC(=O)CN2CCN(CC(=O)O)CCN(CC(=O)O)CCN(CC(=O)O)CC2)C(N)=O)CNC(=O)CCC[C@H](NC(=O)Cc2nnn[nH]2)C(=O)N[C@@H](Cc2ccc(O)cc2)C(=O)N[C@@H](CO)C(=O)N(C)[C@@H](CCc2ccccc2)C(=O)N1C [Example C13],–,–,–,–,"Kd (human HER2 (23-652) [1]; read-out: huHER2-SPR-ONC KD; SPR, human HER2 extracellular domain, 25° C., 1:1 binding model): < 0.1 nM; IC50 (mouse HER2 (23-653); read-out: moHER2 TR-FRET IC50, TR-FRET competition with Cy5 labeled peptide probe, 0.1 nM mouse HER2, 24 h incubation): 0.1 nM; IC50 (human HER2 (23-652) [2]; read-out: huHER2 TR-FRET IC50, TR-FRET competition with Cy5 labeled peptide probe, 0.1 nM human HER2, 24 h incubation): < 0.1 nM"

# Second part, led by results:
Kd (human HER2 (23-652) [1]; [3]) [nM],IC50 (mouse HER2 (23-653); [4]) [nM],IC50 (human HER2 (23-652) [2]; [5]) [nM],IC50 (human HER2 (23-652) [2]; read-out: huHER2 TR-FRET IC50) [nM],SMILES,also measured
< 0.1,< 0.1,< 0.1,–,"CC(=O)NCCCC[C@H]1C(=O)N[C@@H](Cc2c[nH]c3ccc(O)cc23)C(=O)N[C@@H](Cc2c[nH]c3ccccc23)C(=O)N[C@@H](C2CC2)C(=O)N(C)[C@H](C(=O)N(C)[C@@H](Cc2ccc(F)cc2)C(=O)N[C@@H](CCCCNC(=O)CCC(C(=O)O)N2CCN(CC(=O)O)CCN(CC(=O)O)CC2)C(N)=O)CNC(=O)CCC[C@H](NC(C)=O)C(=O)N[C@@H](Cc2ccc(O)cc2)C(=O)N[C@@H](CO)C(=O)N(C)[C@@H](CCc2ccccc2)C(=O)N1C (single isomer, unassigned) [Example C34]",–
0.7,0.7,0.5,–,CC(=O)NCCCC[C@H]1C(=O)N[C@@H](Cc2c[nH]c3ccc(O)cc23)C(=O)N[C@@H](Cc2c[nH]c3ccccc23)C(=O)N[C@@H](C2CC2)C(=O)N(C)[C@H](C(=O)N(C)[C@@H](Cc2ccc(F)cc2)C(N)=O)CNC(=O)CCC[C@H](NC(=O)CCOCCOCCOCCOCCOCCOCCOCCOCCOCCOCCNC(=O)CN2CCN(CC(=O)O)CCN(CC(=O)O)CCN(CC(=O)O)CC2)C(=O)N[C@@H](Cc2ccc(O)cc2)C(=O)N[C@@H](CO)C(=O)N(C)[C@@H](CCc2ccccc2)C(=O)N1C [Example C5] ({DOTA-PEG10}-[Aad]YS[NMehPhe][NMeK](Ac)[Trp(5-OH)]W[Gly(cPr)][NMeDap][NMePhe(4-F)]-NH2; lactam 1-9),–
0.3,–,0.5,–,CC(=O)NCCCC[C@H]1C(=O)N[C@@H](Cc2c[nH]c3ccc(O)cc23)C(=O)N[C@@H](Cc2c[nH]c3ccccc23)C(=O)N[C@@H]([C@H](C)O)C(=O)N(C)[C@H](C(=O)N(C)[C@@H](Cc2ccc(F)cc2)C(=O)N[C@@H](CCCCNC(=O)CN2CCN(CC(=O)O)CCN(CC(=O)O)CCN(CC(=O)O)CC2)C(N)=O)CNC(=O)CCC[C@H](NC(C)=O)C(=O)N[C@@H](Cc2ccc(O)cc2)C(=O)N[C@@H](CO)C(=O)N(C)[C@@H](CCc2ccccc2)C(=O)N1C [Example C6],"IC50 (mouse HER2 (23-653); value in parentheses (**): recalculated after further repetition, read-out: moHER2 TR-FRET IC50, recalculated value achieved after further repetition): 1 nM; IC50 (human HER2 (23-652) [2]; value in parentheses (**): recalculated after further repetition, read-out: huHER2 TR-FRET IC50, recalculated value achieved after further repetition): 0.3 nM"
< 0.1,0.2,< 0.1,–,CC(=O)NCCCC[C@H]1C(=O)N[C@@H](Cc2c[nH]c3ccc(O)cc23)C(=O)N[C@@H](Cc2c[nH]c3ccccc23)C(=O)N[C@@H](C2CC2)C(=O)N(C)[C@H](C(=O)N(C)[C@@H](Cc2ccc(F)cc2)C(=O)N[C@@H](CCCNC(=O)CN2CCN(CC(=O)O)CCN(CC(=O)O)CCN(CC(=O)O)CC2)C(N)=O)CNC(=O)CCC[C@H](NC(C)=O)C(=O)N[C@@H](Cc2ccc(O)cc2)C(=O)N[C@@H](CO)C(=O)N(C)[C@@H](CCc2ccccc2)C(=O)N1C [Example C9] (Ac-[Aad]YS[NMehPhe][NMeK](Ac)[Trp(5-OH)]W[Gly(cPr)][NMeDap][NMePhe(4-F)][Orn](DOTA)-NH2; lactam 1-9),–
< 0.1,< 0.1,< 0.1,–,CC(=O)NCCCC[C@H]1C(=O)N[C@@H](Cc2c[nH]c3ccc(O)cc23)C(=O)N[C@@H](Cc2c[nH]c3ccccc23)C(=O)N[C@@H](C2CC2)C(=O)N(C)[C@H](C(=O)N(C)[C@@H](Cc2ccc(F)cc2)C(=O)N[C@@H](CCCCNC(=O)CN2CCN(CC(=O)O)CCN(CC(=O)O)CCN(CC(=O)O)CC2)C(N)=O)CNC(=O)CCC[C@H](NC(=O)CC(=O)O)C(=O)N[C@@H](Cc2ccc(O)cc2)C(=O)N[C@@H](CO)C(=O)N(C)[C@@H](CCc2ccccc2)C(=O)N1C [Example C10],–
0.4,1,0.3,–,CC(=O)NCCCC[C@H]1C(=O)N[C@@H](Cc2c[nH]c3ccc(O)cc23)C(=O)N[C@@H](Cc2c[nH]c3ccccc23)C(=O)N[C@@H](C2CC2)C(=O)N(C)[C@H](C(=O)N(C)[C@@H](Cc2ccc(F)cc2)C(=O)N[C@@H](CCCCNC(=O)CN2CCN(CC(=O)O)CCN(CC(=O)O)CCN(CC(=O)O)CC2)C(=O)O)CNC(=O)CCC[C@H](NC(C)=O)C(=O)N[C@@H](Cc2ccc(O)cc2)C(=O)N[C@@H](CO)C(=O)N(C)[C@@H](CCc2ccccc2)C(=O)N1C [Example C12],–
< 0.1,0.1,< 0.1,–,CC(=O)NCCCC[C@H]1C(=O)N[C@@H](Cc2c[nH]c3ccc(O)cc23)C(=O)N[C@@H](Cc2c[nH]c3ccccc23)C(=O)N[C@@H](C2CC2)C(=O)N(C)[C@H](C(=O)N(C)[C@@H](Cc2ccc(F)cc2)C(=O)N[C@@H](CCCCNC(=O)CN2CCN(CC(=O)O)CCN(CC(=O)O)CCN(CC(=O)O)CC2)C(N)=O)CNC(=O)COC[C@H](NC(C)=O)C(=O)N[C@@H](Cc2ccc(O)cc2)C(=O)N[C@@H](CO)C(=O)N(C)[C@@H](CCc2ccccc2)C(=O)N1C [Example C16] (Ac-SYS[NMehPhe][NMeK](Ac)[Trp(5-OH)]W[Gly(cPr)][NMeDap][NMePhe(4-F)]K(DOTA)-NH2; linker 1-9 via X6),–
